A short description of one data set: Pharmacokinetics in mice. As to conditions: SQ injection of 10 mg/Kg, in words; 10 mg/kg. In kind it is in vivo, mouse. The method, then: Wildtype or non-transgenic (NTg) C57Bl6 mice or Sprague-Dawley rats were dosed by oral (gavage) or subcutaneous (SQ) injection at 10 or 30 mg/kg, and animals were euthanized 1, 2, 6, and 8 h after administration by ketamine/xylazine over-anesthesia, in rats, CSF was also collected, followed by transcardial collection of blood for isolation of plasma and saline perfusion. Brain tissue was collected post-mortem for assessment of compound levels and biomarkers.
Analyses of compound levels in PK studies were performed in the UCLA Pasarow Mass Spectrometry Lab (PMSL; Julian Whitelegge, Ph.D., Director). Tissues were homogenized in a bead beater using 5 vol of ice-cold 80 % acetonitrile (1/5; mg of brain/μL of 80 % ACN). Plasma analytes were extracted using 4 vol of ice-cold acetonitrile (1/4; μL of plasma/μL of 100 % ACN). Solutions were clarified by centrifugation (16,000×g, 5 min) and the supernatants were transferred to new tubes and lyophilized. Samples were reconstituted in 100 μL of 50/50/0.1 (Water/Acetonitrile/Formic Acid) prior to analysis via liquid chromatography-tandem mass spectrometry (LC-MS/MS).
An internal standard (IS) was added to every sample to account for compound loss during sample processing. Standards were made in drug naïve plasma and tissue lysates with increasing amounts of analyte (S1, S2: 0 pmol/S3, S4: 1 pmol/S5, S6: 10 pmol/S7, S8: 100 pmol, S9, S10: 1000 pmol). The standard curve was made by plotting the known amount of analyte per standard vs. the ratio of measured chromatographic peak areas corresponding to the analyte over that of the IS (analyte/IS). The trendline equation was then used to calculate the absolute concentrations of each compound in plasma and tissue.
The targeted LC-MS/MS assay was developed using the multiple reaction monitoring (MRM) acquisition method on a 6460 triple quadrupole mass spectrometer (Agilent Technologies) coupled to a 1290 Infinity HPLC system (Agilent Technologies) with a Phenomenex analytical column (Kinetex 1.7 μm C18 100 Å 100 × 2.1 mm). The HPLC method utilized a mixture of solvent A (99.9/0.1 Water/Formic Acid) and solvent B (99.9/0.1 Acetonitrile/Formic Acid) and a gradient was use for the elution of the compounds (min/%B: 0/1, 3/1, 19/99, 20/1, 30/1). Two fragment ions were monitored at specific LC retention times to ensure specificity and accurate quantification in the complex biological samples. The normalized chromatographic peak areas were determined by taking the ratio of measured chromatographic peak areas corresponding to the compound over that of the internal standard (Analyte/IS).
The Tmax, Cmax, brain-to-plasma ratios and brain levels were then calculated using PK Solutions software (SummitPK).

Data set [1] has as its system CHO-7W cells expressing wildtype human APP. Nature of the data set: sAPPβ and Aβ1-42 production in CHO-7W cells (AlphaLISA). In kind it is cell-based, Chinese hamster. To be noted: in words. The method, then:
Culture Media was collected and frozen. Media was assayed using an AlphaLISA for Aβ1-42 (Perkin Elmer catalog # AL276C), sAPPα (R&D Systems catalog # AF1168 conjugated with Perkin Elmer acceptor beads catalog # 6772001 + 2B3 antibody from IBL catalog # 11088 biotinylated), and sAPPβ (Perkin Elmer AL276-acceptor + IBL catalog # 18957 biotinylated). For the assay, 2 μL of diluted or undiluted sample was added to a 384 well plate, followed by 2 μL of the respective antibody mixture. This was incubated for 1 h. Afterwards, 2 μL of donor beads was added to each well, followed by a 30-min incubation in the dark, after which the signal was read.

The target in the next data set is BACE1 (Homo sapiens, UniProt P56817). Nature of the data set: P5-P5′ BACE1 inhibition assay. In kind it is biochemical. As to conditions: for IC50: cell-free, read-out: BACE1 IC50 (P5-P5′ assay; BACE1-APP).
BACE1, sequence (P56817 46-501): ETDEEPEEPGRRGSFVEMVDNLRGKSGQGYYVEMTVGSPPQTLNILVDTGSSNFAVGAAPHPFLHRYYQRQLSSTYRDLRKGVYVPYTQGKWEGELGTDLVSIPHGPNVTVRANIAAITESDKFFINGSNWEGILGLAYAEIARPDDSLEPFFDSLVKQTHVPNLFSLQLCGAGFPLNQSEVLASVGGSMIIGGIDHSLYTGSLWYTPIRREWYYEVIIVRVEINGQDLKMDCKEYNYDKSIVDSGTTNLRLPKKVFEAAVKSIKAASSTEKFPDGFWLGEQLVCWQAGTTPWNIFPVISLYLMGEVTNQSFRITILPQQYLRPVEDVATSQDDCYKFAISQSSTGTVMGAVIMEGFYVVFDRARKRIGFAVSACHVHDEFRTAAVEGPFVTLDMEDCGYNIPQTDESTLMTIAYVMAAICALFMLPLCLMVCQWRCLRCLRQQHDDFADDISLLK
Data set [2] in a line: Pilot PK of FAH65 vs. verubecestat in rats. Type of data set: in vivo, rat. As to conditions: oral gavage, 30 mg/kg.
A further data set addresses T1, BACE1 cleavage of NRG1 (Homo sapiens, UniProt P56817).
T1 construct: with or without full-length wild-type BACE1; expressed in transfected cells; host or cells: HEK293
Nature of the data set: SEAP-NRG assay. As to conditions: at ∼1 μM, in words. In kind it is cell-based.

Another data set deals with eAPP (Homo sapiens, UniProt P05067). Nature of the data set: APP binding by surface plasmon resonance (SPR).
eAPP, sequence (P05067 18-701): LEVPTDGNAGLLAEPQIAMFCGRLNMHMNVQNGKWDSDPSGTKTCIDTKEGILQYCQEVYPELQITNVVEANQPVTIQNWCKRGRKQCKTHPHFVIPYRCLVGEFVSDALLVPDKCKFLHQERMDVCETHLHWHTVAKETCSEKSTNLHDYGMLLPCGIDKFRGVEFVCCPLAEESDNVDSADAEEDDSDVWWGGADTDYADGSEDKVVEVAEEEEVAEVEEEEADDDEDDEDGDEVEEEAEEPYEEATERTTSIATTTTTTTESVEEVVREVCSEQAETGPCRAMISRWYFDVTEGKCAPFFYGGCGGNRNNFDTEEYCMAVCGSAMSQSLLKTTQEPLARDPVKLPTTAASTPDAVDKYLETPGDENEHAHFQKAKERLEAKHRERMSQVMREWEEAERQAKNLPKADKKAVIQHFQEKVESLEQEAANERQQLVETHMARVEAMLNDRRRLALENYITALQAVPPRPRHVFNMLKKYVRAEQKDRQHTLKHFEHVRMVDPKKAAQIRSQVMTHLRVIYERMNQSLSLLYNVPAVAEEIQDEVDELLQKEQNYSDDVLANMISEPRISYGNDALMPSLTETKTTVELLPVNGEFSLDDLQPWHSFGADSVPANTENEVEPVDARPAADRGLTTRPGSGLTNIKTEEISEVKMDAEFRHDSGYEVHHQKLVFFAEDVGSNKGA
Data set [3] can be described thus: Brain tissue binding assay. Type of data set: in vitro ADME, mouse. As to conditions: brain homogenate, 2 µM compound. The method, then:
The […]
(§1) KIAM = (tr – t0) / t0; Pm = (KIAM / MW4) x 1010
(§2) Compounds with a Pm >0.85 are predicted to be BBB permeable (CNS+) at pH 7.4.
Brain Tissue Binding Assay
Brain tissue was homogenized in PBS (pH 7.4) (1: 3 weight(mg)/volume(µL)) and the protein concentration determined using the Micro BCA™ Pr otein Assay Kit (Thermo Fisher Scientific, Cat#23235). Brain homogenate was diluted to 20 mg/mL in PBS (pH 7.4) and added to Slide-A-Lyzer™ MINI Dialysis Devices, 10K MWCO dialysis cups (Thermo Fisher Scientific, Cat#PI88401) in a 48-well plate containing PBS (500 µL; pH 7.4). 1 µL of 1 mM compound was added to the brain homogenate (final concentration: 2 µM compound, 0.5% DMSO) and incubated on a rocker for 4.5 hours at 37 °C. 50 µL of brain homogenate (within the dialysis cup) and PBS (within the 48-well plate) were transferred to new microcentrifuge tubes containing 200 µL of quenching reagent (100% acetonitrile) containing internal standard. Solutions were clarified by centrifugation (16,000 x g, 5 min) and the supernatants were transferred to new tubes and lyophilized. Samples were reconstituted in 100 µL of 50/50/0.1 (Water/Acetonitrile/Formic Acid) prior to analysis via LC-MS/MS.
The % of the unbound drug was calculated using the following equation: fubound = [normalized peak area in buffer side / normalized peak area in brain side] x 100

For data set [4], the target named is T2, human serum albumin (HSA) (Homo sapiens, UniProt P02768).
T2 construct: purchased Chiral Technologies H15L-109
T2 sequence (P02768 25-609): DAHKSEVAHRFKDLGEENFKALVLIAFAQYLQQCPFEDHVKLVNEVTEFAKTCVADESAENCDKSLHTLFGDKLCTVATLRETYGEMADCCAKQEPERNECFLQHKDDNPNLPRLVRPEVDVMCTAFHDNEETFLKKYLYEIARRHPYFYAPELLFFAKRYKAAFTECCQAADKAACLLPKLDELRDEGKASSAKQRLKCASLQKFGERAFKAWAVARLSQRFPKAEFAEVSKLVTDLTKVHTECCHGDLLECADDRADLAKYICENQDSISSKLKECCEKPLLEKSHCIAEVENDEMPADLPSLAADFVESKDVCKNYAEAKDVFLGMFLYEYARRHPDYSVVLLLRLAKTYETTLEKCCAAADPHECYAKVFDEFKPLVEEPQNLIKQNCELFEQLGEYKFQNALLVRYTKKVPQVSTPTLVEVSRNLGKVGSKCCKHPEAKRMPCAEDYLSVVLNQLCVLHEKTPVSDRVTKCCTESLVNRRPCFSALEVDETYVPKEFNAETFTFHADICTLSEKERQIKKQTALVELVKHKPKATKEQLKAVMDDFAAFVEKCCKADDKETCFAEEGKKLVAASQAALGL
Nature of the data set: Human serum albumin (HSA) binding assay. In kind it is in vitro ADME. As for the experimental part: Human serum albumin (HSA) binding assay
The liquid chromatography-ultraviolet/visible spectroscopy (LC-UV/Vis) assay was performed on a 1290 Infinity HPLC system (Agilent Technologies) with an HPLC column containing immobilized HSA
([…]® CAN, Chiral Technologies, Cat#H15L-109, 5 µm 50 x 4 mm). The HPLC method utilized an isocratic gradient containing 100% 6.7 mM phosphate buffer saline (pH 7.4). The retention time of the compound (tr) and injection peak were recorded.
The percent protein binding (P) was calculated using the following equations:
K’ = (tr – tm) / tm; P = 100 x [K’ / (K’ + 1)] […]
The […]
as §1, §2
Brain Tissue Binding Assay […]
Cat#23235). Brain homogenate was diluted to 20 mg/mL in PBS (pH 7.4) and added to Slide-A-Lyzer™ MINI Dialysis Devices, 10K MWCO dialysis cups (Thermo Fisher Scientific, Cat#PI88401) in a 48-well plate containing PBS (500 µL; pH 7.4). 1 µL of 1 mM compound was added to the brain homogenate (final concentration: 2 µM compound, 0.5% DMSO) and incubated on a rocker for 4.5 hours at 37 °C. 50 µL of brain homogenate (within the dialysis cup) and PBS (within the 48-well plate) were transferred to new microcentrifuge tubes containing 200 µL of quenching reagent (100% acetonitrile) containing internal […]
standard. […]

A further data set can be described thus: Kinetic solubility assay. In kind it is physicochemical. To be noted: PBS pH 7.4, 37 °C. The method, then: FAH65 and its enantiomers at 10 mM in 100% DMSO was diluted in PBS pH 7.4 to 100, 10, 1, and 0.1 µM; plus, a vehicle-only control. The solutions were incubated at 37 °C for 90 min and centrifuged at 16K x g for 5 min. An aliquot of each supernatant was analyzed by LC-MS/MS. A standard curve was generated by plotting the known amount of analyte per standard in DMSO vs. chromatographic peak […]
Kinetic solubility (µM) was calculated using the trendline equation with maximum chromatographic peak area observed in the aqueous sample. (Table S3)
(§3) Liver microsome stability assay
(§4) A 1 µL sample of 1 mM FAH65 and its enantiomers in 100% DMSO was added to 1 mL of 0.5 mg/mL human liver microsomes (Thermo Fisher Scientific, Cat# HMMPL) in PBS pH 7.4, 2 mM NADPH, and 2 mM MgCl2; and incubated at 37 °C for 120 min. Aliquots (50 µL) of the microsome solution were taken […]
quenching solution containing an internal standard. Solutions were clarified by centrifugation (16K x g, 5 min) and supernatants transferred to new tubes and lyophilized. Samples were reconstituted in 100 µL of 50/50/0.1 water/acetonitrile/formic acid prior to analysis via LC-MS/MS. […]
(§5) One µL FAH65 and its enantiomers (1 mM in 100% DMSO) was added to human peripheral blood plasma (Cat#70039, Stemcell Technologies Inc) diluted 2-fold in PBS (1000 µL, pH 7.4) and incubated […]

Another data set can be described thus: Plasma stability assay. In kind it is in vitro ADME. To be noted: human plasma, 37 °C, 180 min. The method, then:
The effects of candidate ASBIs on BACE2 activity was assessed using the R&D Systems BACE2 activity assay kit (Catalog #: 4097-AS and ES010) formatted from to the manufacturers. For the assay, 4 μL of assay buffer was added to each well, followed by 2 μL of BACE2 diluted in assay buffer to 10 ng/µL.
Then, 2 μL of inhibitor, at the appropriate concentrations were added to the wells and incubated for 30 minutes at room temperature. For all dilutions of inhibitor, drug stock solutions of 10 mM in DMSO were diluted to 50 μM in water; subsequent dilutions were in 0.5% DMSO. Afterwards, 2 μL of fluorogenic BACE2 substrate, diluted to 50 μM in assay buffer, were added to each well, after which the signal generated was read every 30 minutes at 25 °C for 2 hr (Fig S2).
FAH65 and its enantiomers at 10 mM in 100% DMSO was diluted in PBS pH 7.4 to 100, 10, 1, and 0.1 µM; plus, a vehicle-only control. The solutions were incubated at 37 °C for 90 min and centrifuged at 16K x g for 5 min. An aliquot of each supernatant was analyzed by LC-MS/MS. […]
Kinetic solubility (µM) was calculated using the trendline equation with maximum chromatographic peak area observed in the aqueous sample. […]
([…]® CAN, Chiral Technologies, Cat#H15L-109, 5 µm 50 x 4 mm). […] The retention time of the compound (tr) and injection peak were recorded.
The percent protein binding (P) was calculated using the following equations: […]

Data set [5] can be described thus: Liver microsome stability assay. Type of data set: in vitro ADME. As to conditions: human liver microsomes. The method, then: as §3, §4
quenching solution containing an internal standard. Solutions were clarified by centrifugation (16K x g, 5 min) and supernatants transferred to new tubes and lyophilized. Samples were reconstituted in 100 µL of 50/50/0.1 water/acetonitrile/formic acid prior to analysis via LC-MS/MS.
Normalized chromatographic peak areas were plotted at each time point and the half-life (t1/2) of compound in liver microsomes was determined by using the trendline equation to calculate the time at which compound abundance was 50% of that at timepoint 0 (T0).
as §5
and 180 min, and added to a 200 µL 100% acetonitrile reaction quenching solution containing an internal standard. Solutions were clarified by centrifugation (16K x g, 5 min) and supernatants were transferred to new tubes and lyophilized. […]
For orientation: Liver microsomes are a subcellular fraction often used to study metabolism.

Values after ≈ are worked out from the molar mass of the structure shown. Values joined by “and” are separate entries in the source; they are usually repeats but may differ in a detail not shown here. Equal values may be shown once. Bounds are passed on as bounds.

T1 sequence (P56817 46-501): as the sequence (P56817 46-501) above
Protocol for BACE1 cleavage of NRG1: A cDNA construct encoding a human placental secreted alkaline phosphatase (SEAP)-NRG1 (pAPtag5-NRG1-β1) fusion protein was transfected in human embryonic kidney (HEK293) cells in a 6-well format with or without full-length wild-type BACE1 using Lipofectamine 2000 (Invitrogen) as described previously [27]. After transfection, the medium was replaced with DMEM containing the test compound at 10, 5, 1, 0.1, and 0.01 ​μM as well as 10 ​% heat-inactivated fetal bovine serum (FBS), then incubated for 24 ​h. SEAP activity was measured in the conditioned medium.
Protocol for eAPP: The interaction of FAH3, 17 and 65 were evaluated using the SPR protocol described previously in Descamps et al., [26].
For these pilot experiments eAPP as described in Descamps et al (26) is crosslinked to a the CM5 Biacore chip. FAH3 at various concentration was used in the flow through the chip, and the plasmon resonance signal was determined using a Biacore T100. The raw data uncorrected for contribution of running buffer is fit to equilibrium binding data and corrected for the contribution of the running buffer to
For FAH17 and FAH65-APP binding was determined using SPR to determine competition with BSA that non-specifically binds to the eAPP-Biacore chip.

As for `CN1C(=O)C(c2ccccc2)(c2cc(F)cc(F)c2)N=C1N` (centres unmarked) [FAH1], the brain permeability result in the data set “Pharmacokinetics in mice” is reported as “brain permeable”. Also, the Aβ42 result in data set [1] (5 μM) is given as “decreased”. Further, at BACE1, the IC50 (as a rule, the concentration at which inhibition is half-maximal) was 5000 to 10000 nM and ~10000 nM.

For the molecule `CN1C(=N)N[C@](C)(c2cc(NC(=O)c3ccc(F)cn3)ccc2F)CS1(=O)=O` [Veru, verubecestat, reference compound], in data set [2] (both sexes, Sprague-Dawley, rat, brain), the concentration peaked (Cmax) at 157 ng/g. Moreover, in [2], the “time of brain Cmax” value stood at 2 h.

On to `Cc1cc(C2(c3cc(F)cc(F)c3)N=C(N)N(C)C2=O)ccc1OC(F)F` (centres unmarked) [FAH3], for which, on BACE1 cleavage of NRG1, the “inhibition of SEAP-NRG cleavage” value was “no SEAP-NRG cleavage”. Further, the brain permeability entry in “Pharmacokinetics in mice” was “had brain permeability”. Also, the Kd at eAPP is approximately 300 nM. Moreover, the Aβ1-42 production entry in data set [1] (1 μM) was “decreased”. For the same molecule, the inhibition (as a rule, the share of the control response that was lost under treatment) at 1 µM at BACE1 (at ∼1 μM, read-out: inhibition of BACE1 cleavage of APP) was 50%. The half-maximal inhibitory concentration (IC50) at BACE1 is 1000 to 4000 nM and ~1000 nM and 500 to 1000 nM.

Take `Cc1cc(C2(c3cccc(-c4cncnc4)c3)N=C(N)N(C)C2=O)ccc1OC(F)F` (stereo not drawn) [FAH65E(+)]: the “Brain tissue binding, funbound” value in data set [3] came out at 6.2%. For the same molecule, the “Plasma (HSA) binding, funbound” value in data set [4] is recorded as 0.8%. The kinetic solubility (as a rule, the concentration staying in solution when a stock, usually in DMSO, is diluted into the medium) at 90 min in the data set “Kinetic solubility assay” was found to be 87 µM (≈ 36.8 µg/mL). Besides, in the data set “Plasma stability assay”, the “Plasma stability t1/2” value is more than 3 h. Besides, the “Microsomal stability T1/2” value in data set [5] was found to be 0.4 h. The “Activity in the P5-P5′ assay” value on BACE1 (in words) was “inactive”.

The record behind these values is paper PMC12491701, “Discovery of an APP-selective BACE1 inhibitor for Alzheimer's disease” (Neurotherapeutics, 2025).
